The source of these data is US20240239775A1, “FXR REGULATOR, PREPARATION METHOD THEREFOR, PHARMACEUTICAL COMPOSITION THEREOF AND USE THEREOF” (QINGDAO RUIJI MEDICAL TECHNOLOGY CO., LTD., priority 2021, published 2024).

A value given as a limit tells only on which side of the number the result lay.

One data set has as its target T1, FXR (Homo sapiens, UniProt Q96RI1).
T1 construct: 5 μL of 20 nM FXR-LBD Complete Coregulator buffer G; purchased ThermoFisher PV4833
T1 sequence (Q96RI1 262-486 limits assumed): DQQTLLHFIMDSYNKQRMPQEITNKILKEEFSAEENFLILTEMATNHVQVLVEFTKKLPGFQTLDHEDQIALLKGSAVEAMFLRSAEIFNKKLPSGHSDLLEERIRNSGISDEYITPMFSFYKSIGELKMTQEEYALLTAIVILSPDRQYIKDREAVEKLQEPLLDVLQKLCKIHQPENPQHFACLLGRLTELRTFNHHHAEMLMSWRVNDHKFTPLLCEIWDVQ
The experiment in a line: FXR antagonist screening by TR-FRET (LanthaScreen TR-FRET FXR co-activation assay kit). As to conditions: Table 1.1, FXR antagonistic activity; TR-FRET with CDCA; geometric means of at least two independent runs. The format is biochemical. An outline of the steps: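 FXR-LBD (20 nM working solution) mixed with compound, CDCA (200 μM working solution) as agonist, Fluorescein-SRC2-2 and Tb-anti-GST antibody in Coregulator buffer G; 10 h at room temperature. Coactivator recruitment read by TR-FRET, triplicate wells.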
(Time-resolved FRET reads energy transfer from a long-lived donor to a nearby acceptor.)

Broadly, the IC50 is the concentration that inhibits the measured activity by half. A lower IC50 goes with inhibition by little substance. A word on the melting point: it is the temperature, or range, at which the solid turns liquid. `CC(=O)N1CCN(c2ccc(N(CCc3ccccc3)S(=O)(=O)c3ccc4oc(C(=O)O)c(C)c4c3)cc2)CC1` [Example F27-S68, 3-methyl-5-(N-(4-(4-acetylpiperazin-1-yl)phenyl)-N-phenethylsulfamoyl)benzofuran-2-carboxylic acid] had a melting point of 183 to 184 °C. Moreover, on FXR, the IC50 was 50 to 100 µM.

As to `Cc1c(C(=O)O)oc2ccc(S(=O)(=O)N(CCc3ccccc3)c3ccc(N4CCN(C(=O)c5ccccc5)CC4)cc3)cc12` [Example F27-S69, 3-methyl-5-(N-(4-(4-benzoylpiperazin-1-yl)phenyl)-N-phenethylsulfamoyl)benzofuran-2-carboxylic acid], the melting point was > 380 °C (dec.). At FXR, this compound returned an IC50 of 10 to 50 µM.

With `Cc1c(C(=O)O)oc2ccc(S(=O)(=O)N(CCc3ccccc3)c3ccc(N4CCN(Cc5ccccc5)CC4)cc3)cc12` [Example F27-S70, 3-methyl-5-(N-(4-(4-benzylpiperazin-1-yl)phenyl)-N-phenethylsulfamoyl)benzofuran-2-carboxylic acid], the melting point is > 380 °C (dec.). Further, the IC50 on FXR fell in the range of 10 to 50 µM.

Turning to `Cc1c(C(=O)O)oc2ccc(S(=O)(=O)N(CCc3ccccc3)c3ccc(N4CCN(C(=O)N(C)C)CC4)cc3)cc12` [Example F27-S71, 3-methyl-5-(N-(4-(4-(dimethylcarbamoyl)piperazin-1-yl)phenyl)-N-phenethylsulfamoyl)benzofuran-2-carboxylic acid], the melting point is 192 to 193 °C. The compound further returned an IC50 against FXR of 50 to 100 µM.

For the compound `Cc1c(C(=O)O)oc2ccc(S(=O)(=O)N(CCc3ccccc3)c3ccc(C4CCN(C(=O)OC(C)(C)C)CC4)cc3)cc12` [Example F27-S73, 3-methyl-5-(N-(4-(1-(tert-butoxycarbonyl)piperidin-4-yl)phenyl)-N-phenethylsulfamoyl)benzofuran-2-carboxylic acid], the melting point was > 380 °C (dec.). On FXR, this compound displayed an IC50 of 0.1 to 10 µM.

The compound `Cc1c(C(=O)O)oc2ccc(S(=O)(=O)N(CCc3ccccc3)c3ccc(N4CCN(C(=O)OC(C)(C)C)CC4)c(C(F)(F)F)c3)cc12` [Example F27-S74, 3-methyl-5-(N-(4-(4-(tert-butoxycarbonyl)piperazin-1-yl)-3-(trifluoromethyl)phenyl)-N-phenethylsulfamoyl)benzofuran-2-carboxylic acid] had a melting point of 215 to 216 °C. Moreover, the IC50 on FXR fell in the range of 0.1 to 10 µM.

In the case of `Cc1c(C(=O)O)oc2ccc(S(=O)(=O)N(CCc3ccccc3)c3ccc(N4CCN(C(=O)OC(C)(C)C)CC4)nc3)cc12` [Example F27-S75, 3-methyl-5-(N-(6-(4-(tert-butoxycarbonyl)piperazin-1-yl)pyridin-3-yl)-N-phenethylsulfamoyl)benzofuran-2-carboxylic acid], the melting point was > 380 °C (dec.). This compound came in with an IC50 at FXR of 10 to 50 µM.

As for `Cc1c(C(=O)O)oc2ccc(S(=O)(=O)N(CCc3ccccc3)c3ccc(CN4CCN(C(=O)OC(C)(C)C)CC4)cc3)cc12` [Example F27-S76, 3-methyl-5-(N-(4-((4-(tert-butoxycarbonyl)piperazin-1-yl)methyl)phenyl)-N-phenethylsulfonamide)benzofuran-2-carboxylic acid], the melting point lay within 234 to 235 °C. This compound gave an IC50 against FXR of 10 to 50 µM.

For the compound `Cc1c(C(=O)O)oc2ccc(S(=O)(=O)N(CCc3ccccc3)c3ccccc3N3CCN(C(=O)OC(C)(C)C)CC3)cc12` [Example F27-S77, 3-methyl-5-(N-(2-(4-(tert-butoxycarbonyl)piperazin-1-yl)phenyl)-N-phenethylsulfamoyl)benzofuran-2-carboxylic acid], the melting point lay in the range of 168 to 169 °C. At FXR, this compound showed an IC50 of 0.1 to 10 µM.

Compound `Cc1c(C(=O)O)oc2ccc(S(=O)(=O)N(CCc3ccccc3)c3cccc(N4CCN(C)CC4)c3)cc12` [Example F27-S78, 3-methyl-5-(N-(3-(4-methylpiperazin-1-yl)phenyl)-N-phenethylsulfamoyl)benzofuran-2-carboxylic acid] came in with a melting point of 232 to 233 °C. In addition, the IC50 against FXR was in the range of 50 to 100 µM.

As for `Cc1c(C(=O)O)oc2ccc(S(=O)(=O)N(CCc3ccccc3)Cc3ccc(N4CCOCC4)cc3)cc12` [Example F27-S79], the melting point was > 380 °C (dec.). Besides, the IC50 against FXR lay within 50 to 100 µM.

`Cc1c(C(=O)O)oc2ccc(S(=O)(=O)N(CCc3ccccc3)Cc3ccc(-c4ccccc4)cc3)cc12` [Example F27-S82, 3-methyl-5-(N-([1,1′-biphenyl]-4-ylmethyl)-N-phenethylsulfamoyl)benzofuran-2-carboxylic acid]: the melting point was > 380 °C (dec.). At FXR, this compound showed an IC50 of 50 to 100 µM.

Consider `Cc1c(C(=O)O)oc2ccc(S(=O)(=O)N(CCc3ccccc3)Cc3ccc(-c4ccccc4C#N)cc3)cc12` [Example F27-S83], for which the melting point lay within 197 to 198 °C. The IC50 at FXR was 10 to 50 µM.

Regarding `Cc1c(C(=O)O)oc2ccc(S(=O)(=O)N(CCc3ccccc3)Cc3ccc(-c4ccccc4C(=O)OC(C)(C)C)cc3)cc12` [Example F27-S84, 3-methyl-5-(N-((2′-(tert-butoxycarbonyl)-[1,1′-biphenyl]-4-yl)methyl)-N-phenethylsulfamoyl)benzofuran-2-carboxylic acid], the melting point was 197 to 198 °C. Moreover, on FXR, the IC50 lay in the range of 10 to 50 µM.

With `Cc1c(C(=O)O)oc2ccc(S(=O)(=O)N(CCc3ccccc3)Cc3ccc(C(=O)c4ccccc4)cc3)cc12` [Example F27-S85, 3-methyl-5-(N-(4-benzoylbenzyl)-N-phenethylsulfamoyl)benzofuran-2-carboxylic acid], the melting point was in the range of 192 to 193 °C. The 50% inhibitory concentration (IC50) on FXR was in the range of 10 to 50 µM.

Regarding `Cc1c(C(=O)O)oc2ccc(S(=O)(=O)N(CCc3ccccc3)Cc3cccc(N4CCN(C(=O)OC(C)(C)C)CC4)c3)cc12` [Example F27-S88, 3-methyl-5-(N-(3-(4-(tert-butoxycarbonyl)piperazin-1-yl)benzyl)-N-phenethylsulfamoyl)benzofuran-2-carboxylic acid], the melting point was 104 to 105 °C. Moreover, at FXR, the IC50 is 0.1 to 10 µM.

With `Cc1c(C(=O)O)oc2ccc(S(=O)(=O)N(CCc3ccccc3)c3ccccc3N3CCNCC3)cc12` [Example F27-S89, 3-methyl-5-(N-phenethyl-N-(2-(piperazin-1-yl)phenyl)sulfamoyl)benzofuran-2-carboxylic acid], the melting point is 172 to 173 °C. This compound also registered a concentration for half-maximal inhibition (IC50) against FXR of 50 to 100 µM.

Regarding `Cc1c(C(=O)O)oc2ccc(S(=O)(=O)N(CCc3ccccc3)c3ccccc3N3CC[N+](C)(C)CC3)cc12` [Example F27-S90, 4-(2-((2-carboxy-3-methyl-N-phenethylbenzofuran)-5-sulfonylamino)phenyl)-1,1-dimethylpiperazin-1-ium], the melting point lay in the range of 246 to 247 °C. Moreover, at FXR, the IC50 was 50 to 100 µM.

For `CC(=O)N1CCN(c2ccccc2N(CCc2ccccc2)S(=O)(=O)c2ccc3oc(C(=O)O)c(C)c3c2)CC1` [Example F27-S91, 3-methyl-5-(N-(2-(4-acetylpiperazin-1-yl)phenyl)-N-phenethylsulfamoyl)benzofuran-2-carboxylic acid], the melting point was 196 to 197 °C. At FXR, this compound yielded an IC50 of 50 to 100 µM.

On to `Cc1c(C(=O)O)oc2ccc(S(=O)(=O)N(CCc3ccccc3)c3ccccc3N3CCN(C(=O)N(C)C)CC3)cc12` [Example F27-S92, 3-methyl-5-(N-(2-(4-(dimethylcarbamoyl)piperazin-1-yl)phenyl)-N-phenethylsulfamoyl)benzofuran-2-carboxylic acid], for which the melting point is > 380 °C (dec.). The compound further had an IC50 against FXR of 10 to 50 µM.

On to `Cc1c(C(=O)O)oc2ccc(S(=O)(=O)N(CCc3ccccc3)c3ccccc3N3CCN(S(C)(=O)=O)CC3)cc12` [Example F27-S93, 3-methyl-5-(N-(2-(4-(methylsulfonyl)piperazin-1-yl)phenyl)-N-phenethylsulfamoyl)benzofuran-2-carboxylic acid], for which the melting point is 144 to 145 °C. Further, the IC50 on FXR was 10 to 50 µM.

Take `Cc1c(C(=O)O)oc2ccc(S(=O)(=O)N(CCc3ccccc3)c3ccccc3N3CCN(C(=O)CC(C)(C)C)CC3)cc12` [Example F27-S94]: the melting point was 191 to 192 °C. Moreover, the IC50 at FXR lay in the range of 0.1 to 10 µM.

In turn, `Cc1c(C(=O)O)oc2ccc(S(=O)(=O)N(CCc3ccccc3)c3ccccc3N3CCN(Cc4ccccc4)CC3)cc12` [Example F27-S95] gave a melting point of 161 to 162 °C. The same compound came in with an IC50 at FXR of 10 to 50 µM.

In turn, `Cc1c(C(=O)O)oc2ccc(S(=O)(=O)N(CCc3ccccc3)Cc3ccccc3N3CCNCC3)cc12` [Example F27-S97, 3-methyl-5-(N-(2-(piperazin-1-yl)benzyl)-N-phenethylsulfamoyl)benzofuran-2-carboxylic acid] came in with a melting point of 223 to 224 °C. The compound further yielded an IC50 at FXR of 50 to 100 µM.

The compound `Cc1c(C(=O)O)oc2ccc(S(=O)(=O)N(CCc3ccccc3)Cc3ccccc3N3CC[N+](C)(C)CC3)cc12` [Example F27-S99, 4-(2-(((2-carboxy-3-methyl-N-phenethylbenzofuran)-5-sulfonamido)methyl)phenyl)-1,1-dimethylpiperazin-1-ium] gave a melting point of 143 to 144 °C. The compound further came in with an IC50 against FXR of 50 to 100 µM.

`CC(=O)N1CCN(c2ccccc2CN(CCc2ccccc2)S(=O)(=O)c2ccc3oc(C(=O)O)c(C)c3c2)CC1` [Example F27-S100, 3-methyl-5-(N-(2-(4-acetylpiperazin-1-yl)benzyl)-N-phenethylsulfamoyl)benzofuran-2-carboxylic acid] had a melting point of 236 to 237 °C. Also, the IC50 against FXR fell in the range of 10 to 50 µM.
